From patent publication US9029373B2, “Kinase inhibitors” (Chiesi Farmaceutici S.p.A., priority 2011, dated 2015)
Counter-ions that a name gives are not always drawn.

Columns and labels:
[1] = tested on: LPS-stimulated PBMC TNFα release; assay: LPS-stimulated PBMC TNFα release assay; assay type: cell-based; conditions: human PBMCs, LPS 10 ng/ml, 18 h, TNFα by ELISA, at least three separate experiments, read-out: p38α inhibition (IC50 values), inhibition of TNFα release
Method: LPS-Stimulated PBMC TNFα Release Assay.
Peripheral Blood Mononuclear Cells (PBMCs) were isolated from healthy human volunteer blood using a standard density gradient centrifugation technique. Citrated blood was placed onto Histopaque™ and centrifuged. The PBMCs were removed from the density gradient interface and washed in phosphate buffered saline (PBS). The PBMCs were suspended in RPMI 1640 medium (without serum), dispensed into a 96-well plate and incubated at 37° C. for 3 h in a humidified incubator. After incubation, the medium was replaced (with medium containing 1% foetal bovine serum), and the plate incubated at 37° C., for 1 h, in the presence of test compound or the appropriate vehicle. LPS (10 ng/ml), or an appropriate vehicle control, was then added to the cells, and the plate returned to the incubator for 18 h. Cell-free supernatants were removed and assayed for TNFα levels using an ELISA kit from R&D Systems.
A dose response curve to each test compound was performed and the effect of compound in each experiment was expressed as a percentage inhibition of the control TNFα release. Dose response curves were plotted and compound potency (IC50) was determined. Compounds were tested in at least three separate experiments.

p38alpha = biological target: T1, p38alpha (Homo sapiens, UniProt Q16539); assay: P38alpha enzyme inhibition assay (Alphascreen kinase activity assay); assay type: biochemical; conditions: 100 pM p38alpha, 250 μM ATP, 2 hours pre-incubation at 25° C., ATF-2 fusion protein substrate; read-out: p38α inhibition (IC50 values)
T1 construct: purchased Invitrogen PV3304
T1 sequence (Q16539 whole entry, the tested form may be a part): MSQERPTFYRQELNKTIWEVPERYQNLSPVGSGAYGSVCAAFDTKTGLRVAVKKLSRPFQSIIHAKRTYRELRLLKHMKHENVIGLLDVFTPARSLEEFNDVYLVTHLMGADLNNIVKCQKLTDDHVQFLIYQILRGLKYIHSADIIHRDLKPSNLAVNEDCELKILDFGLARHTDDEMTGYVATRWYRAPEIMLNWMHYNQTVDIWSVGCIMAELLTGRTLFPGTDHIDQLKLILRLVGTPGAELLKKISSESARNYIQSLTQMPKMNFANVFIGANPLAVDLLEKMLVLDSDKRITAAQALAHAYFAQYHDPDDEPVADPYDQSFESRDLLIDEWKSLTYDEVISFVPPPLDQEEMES
Method: P38alpha Enzyme Inhibition Assay.
The inhibitory activity of compounds was determined using an Alphascreen® (Perkin Elmer) based kinase activity assay. Kinase reactions consisted of 25 mM HEPES pH 7.5, 10 mM MgCl2, 100 μM Na3VO4, 2 mM DTT, 0.05 mg/ml Tween 20, 100 pM p38alpha (Invitrogen, PV3304), 1% DMSO and 0.3 μg/ml ATF-2 fusion protein (New England Biolabs, 9224). Compounds were incubated under these conditions for 2 hours, at 25° C., prior to the initiation of the kinase activity by the addition of the 250 μM ATP. Reaction volumes were 20 uL. After 1 hr at 25° C. reactions were stopped by the adding 10 uL of 25 mM HEPES pH 7.5 containing 62.5 mM EDTA, 0.05% Triton X-100, 10% BSA and 0.83 ng/uL anti-phospho-ATF2 antibody (Abeam, ab28812). Detection was performed by measuring luminescence following the addition of Alphascreen Donor beads (Perkin Elmer 6765300) and Protein A Alphascreen Acceptor beads (Perkin Elmer 6760137), both at a final concentration of 20 ug/ml. IC50 values were determined from concentration-response curves.

## CC(C)c1nnc2ccc(O[C@H]3CC[C@H](NC(=O)Nc4cc(C(C)(C)C)nn4-c4ccc(CO)cc4)c4ccccc43)cn12 [Example 15, 1-[5-tert-Butyl-2-(4-hydroxymethyl-phenyl)-2H-pyrazol-3-yl]-3-[(1S,4S)-4-(3-isopropyl-[1,2,4]triazolo[4,3-a]pyridin-6-yloxy)-1,2,3,4-tetrahydro-naphthalen-1-yl]-urea]
[1]
  IC50: < 10 nM
p38alpha
  IC50: < 10 nM

## CC(C)c1nnc2ccc(O[C@@H]3CC[C@H](NC(=O)Nc4cc(C(C)(C)C)nn4C4CCN(C)CC4)c4ccccc43)cn12 [Example 17, 1-[5-tert-Butyl-2-(1-methyl-piperidin-4-yl)-2H-pyrazol-3-yl]-3-[(1S,4R)-4-(3-isopropyl-[1,2,4]triazolo[4,3-a]pyridin-6-yloxy)-1,2,3,4-tetrahydro-naphthalen-1-yl]-urea]
[1]
  IC50: 100 to 1000 nM
p38alpha
  IC50: < 10 nM

## CC(C)c1nnc2ccc(O[C@@H]3CC[C@H](NC(=O)Nc4cc(C(C)(C)C)nn4CCN4CCOCC4)c4ccccc43)cn12 [Example 18, 1-[5-tert-Butyl-2-(2-morpholin-4-yl-ethyl)-2H-pyrazol-3-yl]-3-[(1S,4R)-4-(3-isopropyl[1,2,4]triazolo[4,3-a]pyridin-6-yloxy)-1,2,3,4-tetrahydro-naphthalen-1-yl]-urea]
[1]
  IC50: 10 to 100 nM
p38alpha
  IC50: < 10 nM

## CC(C)c1nnc2ccc(O[C@@H]3CC[C@H](NC(=O)Nc4cc(C(C)(C)C)nn4C)c4cc(F)ccc43)cn12 [Example 19, 1-(5-tert-Butyl-2-methyl-2H-pyrazol-3-yl)-3-[(1S,4R)-7-fluoro-4-(3-isopropyl-[1,2,4]triazolo[4,3-a]pyridin-6-yloxy)-1,2,3,4-tetrahydro-naphthalen-1-yl]-urea]
[1]
  IC50: 10 to 100 nM
p38alpha
  IC50: < 10 nM

## CC(C)c1nnc2ccc(O[C@@H]3CC[C@H](NC(=O)Nc4cc(C(C)(C)C)nn4-c4cccc(OCCN5CCC(O)CC5)c4)c4ccccc43)cn12 [Example 22, 1-(5-tert-Butyl-2-{3-[2-(4-hydroxy-piperidin-1-yl)-ethoxy]-phenyl}-2H-pyrazol-3-yl)-3-[(1S,4R)-4-(3-isopropyl-[1,2,4]triazolo[4,3-a]pyridin-6-yloxy)-1,2,3,4-tetrahydro-naphthalen-1-yl]-urea formate salt]
[1]
  IC50: 10 to 100 nM
p38alpha
  IC50: < 10 nM

## CC(C)c1nnc2ccc(O[C@@H]3CC[C@H](NC(=O)Nc4cc(C(C)(C)C)nn4-c4cccc(N5CCOCC5)c4)c4ccccc43)cn12 [Example 23, 1-[5-tert-Butyl-2-(3-morpholin-4-yl-phenyl)-2H-pyrazol-3-yl]-3-[(1S,4R)-4-(3-isopropyl-[1,2,4]triazolo[4,3-a]pyridin-6-yloxy)-1,2,3,4-tetrahydro-naphthalen-1-yl]-urea]
[1]
  IC50: < 10 nM
p38alpha
  IC50: < 10 nM

## CC(C)(C)c1cc(NC(=O)N[C@H]2CC[C@@H](Oc3ccc4nnc(-c5c(Cl)cccc5Cl)n4c3)c3ccccc32)n(CCO)n1 [Example 26, 1-[5-tert-Butyl-2-(2-hydroxy-ethyl)-2H-pyrazol-3-yl]-3-{(1S,4R)-4-[3-(2,6-dichloro-phenyl)-[1,2,4]triazolo[4,3-a]pyridin-6-yloxy]-1,2,3,4-tetrahydro-naphthalen-1-yl}-urea]
[1]
  IC50: < 10 nM
p38alpha
  IC50: < 10 nM

## CC(C)(C)c1cc(NC(=O)N[C@H]2CC[C@@H](Oc3ccc4nnc(-c5c(Cl)cccc5Cl)n4c3)c3ccccc32)n(CCN2CCOCC2)n1 [Example 27, 1-[5-tert-Butyl-2-(2-morpholin-4-yl-ethyl)-2H-pyrazol-3-yl]-3-{(1S,4R)-4-[3-(2,6-dichloro-phenyl)-[1,2,4]triazolo[4,3-a]pyridin-6-yloxy]-1,2,3,4-tetrahydro-naphthalen-1-yl}-urea formate salt]
[1]
  IC50: < 10 nM
p38alpha
  IC50: < 10 nM

## CN(C)CCn1nc(C(C)(C)C)cc1NC(=O)N[C@H]1CC[C@@H](Oc2ccc3nnc(-c4c(Cl)cccc4Cl)n3c2)c2ccccc21 [Example 28, 1-[5-tert-Butyl-2-(2-dimethylamino-ethyl)-2H-pyrazol-3-yl]-3-{(1S,4R)-4-[3-(2,6-dichloro-phenyl)-[1,2,4]triazolo[4,3-a]pyridin-6-yloxy]-1,2,3,4-tetrahydro-naphthalen-1-yl}-urea formate salt]
[1]
  IC50: < 10 nM
p38alpha
  IC50: < 10 nM

## CC(C)(C)c1cc(NC(=O)N[C@H]2CC[C@@H](Oc3ccc4nnc(-c5c(Cl)cccc5Cl)n4c3)c3ccccc32)n(CCN2CCCCC2)n1 [Example 29, 1-[5-tert-Butyl-2-(2-piperidin-1-yl-ethyl)-2H-pyrazol-3-yl]-3-{(1S,4R)-4-[3-(2,6-dichloro-phenyl)-[1,2,4]triazolo[4,3-a]pyridin-6-yloxy]-1,2,3,4-tetrahydro-naphthalen-1-yl}-urea formate salt]
[1]
  IC50: < 10 nM
p38alpha
  IC50: < 10 nM

## CN1CCN(CCn2nc(C(C)(C)C)cc2NC(=O)N[C@H]2CC[C@@H](Oc3ccc4nnc(-c5c(Cl)cccc5Cl)n4c3)c3ccccc32)CC1 [Example 30, 1-{5-tert-Butyl-2-[2-(4-methyl-piperazin-1-yl)-ethyl]-2H-pyrazol-3-yl}-3-{(1S,4R)-4-[3-(2,6-dichloro-phenyl)-[1,2,4]triazolo[4,3-a]pyridin-6-yloxy]-1,2,3,4-tetrahydro-naphthalen-1-yl}-urea formate salt]
[1]
  IC50: < 10 nM
p38alpha
  IC50: < 10 nM

## CC(C)(C)c1cc(NC(=O)N[C@H]2CC[C@@H](Oc3ccc4nnc(-c5ccccc5Cl)n4c3)c3ccccc32)n(CCO)n1 [Example 31, 1-[5-tert-Butyl-2-(2-hydroxy-ethyl)-2H-pyrazol-3-yl]-3-{(1S,4R)-4-[3-(2-chloro-phenyl)-[1,2,4]triazolo[4,3-a]pyridin-6-yloxy]-1,2,3,4-tetrahydro-naphthalen-1-yl}-urea]
[1]
  IC50: < 10 nM
p38alpha
  IC50: < 10 nM

## CC(C)(C)c1cc(NC(=O)N[C@H]2CC[C@@H](Oc3ccc4nnc(-c5ccccc5Cl)n4c3)c3ccccc32)n(CCN2CCOCC2)n1 [Example 32, 1-[5-tert-Butyl-2-(2-morpholin-4-yl-ethyl)-2H-pyrazol-3-yl]-3-{(1S,4R)-4-[3-(2-chloro-phenyl)-[1,2,4]triazolo[4,3-a]pyridin-6-yloxy]-1,2,3,4-tetrahydro-naphthalen-1-yl}-urea formate salt]
[1]
  IC50: < 10 nM
p38alpha
  IC50: < 10 nM

## Cn1nc(C(C)(C)C)cc1NC(=O)N[C@H]1CC[C@@H](Oc2ccc3nnc(-c4c(Cl)cccc4Cl)n3c2)c2ccccc21 [Example 33, 1-(5-tert-Butyl-2-methyl-2H-pyrazol-3-yl)-3-{(1S,4R)-4-[3-(2,6-dichlorophenyl)-[1,2,4]triazolo[4,3-a]pyridin-6-yloxy]-1,2,3,4-tetrahydronaphthalen-1-yl]-urea]
[1]
  IC50: < 10 nM
p38alpha
  IC50: < 10 nM

## CC(C)(C)c1cc(NC(=O)N[C@H]2CC[C@@H](Oc3ccc4nnc(C5CCCCC5)n4c3)c3ccccc32)n(CCN2CCOCC2)n1 [Example 34, 1-[5-tert-Butyl-2-(2-morpholin-4-yl-ethyl)-2H-pyrazol-3-yl]-3-[(1S,4R)-4-(3-cyclohexyl-[1,2,4]triazolo[4,3-a]pyridin-6-yloxy)-1,2,3,4-tetrahydro-naphthalen-1-yl]-urea partial formate salt]
[1]
  IC50: < 10 nM
p38alpha
  IC50: < 10 nM
